Data published in patent US9382188B2, “Aromatic ring compound” (TAKEDA PHARMACEUTICAL COMPANY LIMITED, priority 2012, dated 2016).

target: T1, human GPR40 (Homo sapiens, UniProt O14842); assay: Evaluation of human GPR40 agonist activity with increase in intracellular Ca2+ concentration as an index (FLIPR Tetra); assay type: cell-based; conditions: test compound 1 μM; CHO(dhfr-) cells stably expressing human GPR40; 100% = activity of 1 μM WO2009/048527 Example 99.2, 0% = DMSO
T1 construct: expressed in transfected cells
Outline: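 CHO(dhfr-) cells stably expressing human GPR40, loaded with Calcium 5 dye in HEPES/HBSS buffer with 0.2% fatty acid-free BSA and probenecid, 1 h at 37° C. Test compound added at 1 μM final; fluorescence Ca2+ rise scaled to a reference agonist at 1 μM (100%) and DMSO (0%).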

T1 sequence (O14842 whole entry): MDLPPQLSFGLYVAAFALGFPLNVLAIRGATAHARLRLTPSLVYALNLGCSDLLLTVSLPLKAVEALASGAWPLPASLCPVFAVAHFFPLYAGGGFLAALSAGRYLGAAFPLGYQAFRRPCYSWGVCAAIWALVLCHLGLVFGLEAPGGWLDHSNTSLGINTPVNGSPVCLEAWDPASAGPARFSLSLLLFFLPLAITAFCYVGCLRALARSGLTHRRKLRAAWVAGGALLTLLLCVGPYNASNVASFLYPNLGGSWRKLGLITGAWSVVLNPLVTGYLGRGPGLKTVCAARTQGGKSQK

activation at 1 µM [%]	SMILES
98	COc1ccc(F)c(-c2ccc(OCc3cccc(C(CC(=O)O)C4CC4)c3)cc2-c2ccc(C(F)(F)F)cc2)c1 (stereo not shown) [Example 17, 3-cyclopropyl-3-(3-(((2-fluoro-5-methoxy-4″-(trifluoromethyl)-1,1′:2′,1″-terphenyl-4′-yl)oxy)methyl)phenyl)propanoic acid]
126	CC(C)(C)Cc1cc(OCc2cccc(C(CC(=O)O)C3CC3)c2)cnc1-c1cccc(O)c1 (stereo not shown) [Example 55, 3-cyclopropyl-3-(3-(((5-(2,2-dimethylpropyl)-6-(3-hydroxyphenyl)pyridin-3-yl)oxy)methyl)phenyl)propanoic acid]
134	C=CC(CC(=O)O)c1cccc(COc2ccc(-c3cc(OC)ccc3F)c(CC(C)(C)C)c2)c1 (stereo not shown) [Example 79, 3-(3-(((2′-fluoro-5′-methoxy-2-neopentyl-[1,1′-biphenyl]-4-yl)oxy)methyl)phenyl)pent-4-enoic acid]
103	COc1ccc(F)c(-c2ccc(OCc3cccc(C(CC(=O)O)C4CC4)c3)cc2COCC(C)(C)C)c1 (stereo not shown) [Example 114, 3-cyclopropyl-3-(3-(((2′-fluoro-5′-methoxy-2-((neopentyloxy)methyl)-[1,1′-biphenyl]-4-yl)oxy)methyl)phenyl)propanoic acid]
9	COc1ccccc1-c1ncc(OCc2cccc(C(CC(=O)O)C3CC3)c2)cc1CC(C)(C)C (stereo not shown) [Example 50, 3-cyclopropyl-3-(3-(((5-(2,2-dimethylpropyl)-6-(2-methoxyphenyl)pyridin-3-yl)oxy)methyl)phenyl)propanoic acid]
114	COc1ccc(C)c(-c2ncc(OCc3cccc(C(CC(=O)O)C4CC4)c3)cc2CC(C)(C)C)c1 (stereo not shown) [Example 58, 3-cyclopropyl-3-(3-(((5-(2,2-dimethylpropyl)-6-(5-methoxy-2-methylphenyl)pyridin-3-yl)oxy)methyl)phenyl)propanoic acid]
95	COc1ccc(F)c(-c2ccc(OCc3cccc(C(CC(=O)O)C(C)(F)F)c3)cc2CC(C)(C)C)c1 (stereo not shown) [Example 86, 4,4-difluoro-3-(3-(((2′-fluoro-5′-methoxy-2-neopentyl-[1,1′-biphenyl]-4-yl)oxy)methyl)phenyl)pentanoic acid]
5	COc1ccc(F)c(-c2ccc(OCc3cccc(C(CC(=O)O)CC(=O)O)c3)cc2CC(C)(C)C)c1 [Example 82, 3-(3-(((2′-fluoro-5′-methoxy-2-neopentyl-[1,1′-biphenyl]-4-yl)oxy)methyl)phenyl)pentanedioic acid]
107	C=CCCC(CC(=O)O)c1cccc(COc2ccc(-c3cc(OC)ccc3F)c(CC(C)(C)C)c2)c1 (stereo not shown) [Example 43, 3-(3-(((2-(2,2-dimethylpropyl)-2′-fluoro-5′-methoxybiphenyl-4-yl)oxy)methyl)phenyl)hept-6-enoic acid]
-23	CC(C)(C)Cc1cc(OCc2cccc(C(CC(=O)O)C3CC3)c2)cnc1-c1cccc(OC(F)(F)F)c1 (stereo not shown) [Example 49, 3-cyclopropyl-3-(3-(((5-(2,2-dimethylpropyl)-6-(3-(trifluoromethoxy)phenyl)pyridin-3-yl)oxy)methyl)phenyl)propanoic acid]
105	COc1cc(-c2ccc(OCc3cccc(C(CC(=O)O)C4CC4)c3)cc2CC(C)(C)C)c(F)cn1 (stereo not shown) [Example 104, 3-cyclopropyl-3-(3-((3-(2,2-dimethylpropyl)-4-(5-fluoro-2-methoxypyridin-4-yl)phenoxy)methyl)phenyl)propanoic acid]
106	COc1ccc(F)c(-c2ccc(OCc3cccc(C(CC(=O)O)C4CC4)c3)cc2CCC(C)(C)C)c1 (stereo not shown) [Example 93, 3-cyclopropyl-3-(3-(((2-(3,3-dimethylbutyl)-2′-fluoro-5′-methoxybiphenyl-4-yl)oxy)methyl)phenyl)propanoic acid]
95	CC#CC(CC(=O)O)c1cccc(COc2ccc(-c3cc(OC)ccc3F)c(CC(C)(C)C)c2)c1 (stereo not shown) [Example 76, 3-(3-(((2′-fluoro-5′-methoxy-2-neopentyl-[1,1′-biphenyl]-4-yl)oxy)methyl)phenyl)hex-4-ynoic acid]
